Source: US20230416239A1, “COMPOUNDS AND METHODS FOR TREATING A CYTOKINE-MEDIATED DISEASE” (CONSERVATOIRE NATIONAL DES ARTS ET MÉTIERS, priority 2020, published 2023)

Assays:
IL-6 = IL-6 (Homo sapiens, UniProt P05231); assay: Immunoassay binding test, IL-6 (gp130 receptor, IL-6Ra present); conditions: IL-6Ra 200 ng/ml
Procedure: (§1) Microtiter plates (96 wells) are covered with 100 μl of receptor per well, and incubated overnight at 4° C. The following day, after 2 washes in PBS/Tween20, the plates are saturated with 150 μl of PBS/BSA 2% per well, for 2 h at 37° C. Synthetic compounds are diluted in series (final concentrations: 100 to 0.78 μM) then a fixed amount of cytokine in PBS/BSA 1% is added to the compounds, in a final volume of 120 μl per well. […] The cytokine is diluted in series (six concentrations) in a final volume of 120 μl per well. The cytokine is used in the absence of small molecule as well as the range of SPD304 as positive controls and the absence of cytokine and synthetic molecule as negative control. The different mixtures are incubated for 2 h at 37° C. 100 μl of each mixture are then transferred to the microtiter plate, respecting the plate plan previously defined and incubated overnight at 4° C. After three washes, 100 μl of biotinylated anti-cytokine secondary antibody are added to each well, then incubated for 2 h at 37° C. After three washes, 100 μl of Avidin-HRP (1/500th dilution) are added and incubated for 30 minutes at 37° C. […] The plates are then read with a spectrophotometer at 450 nm, measuring the optical density for each well.
(§2) This binding test is carried out with different cytokines: TNFa, IL-4, IL-6 and IL-13. For IL-6, the incubation of molecules with the cytokine also requires the presence of IL-6Ra at a final concentration of 200 ng/ml.
(§3) The final concentrations used for each of the cytokines are presented below: […]

IL-4 = biological target: T1, IL-4 (Homo sapiens, UniProt P05112); assay: Immunoassay binding test, IL-4; conditions: for IC50: IL-4 400 ng/ml, receptor 100 ng/ml, read-out: BINDING IL4 IC50
T1 sequence (P05112 25-153): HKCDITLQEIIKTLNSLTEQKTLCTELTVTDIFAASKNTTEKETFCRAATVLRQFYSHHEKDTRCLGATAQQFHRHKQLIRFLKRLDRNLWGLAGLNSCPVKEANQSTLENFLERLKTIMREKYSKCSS
Procedure: as §1, §2, §3

IL-13 = IL-13 (Homo sapiens, UniProt P35225); assay: Immunoassay binding test, IL-13; conditions: for IC50: IL-13 400 ng/ml, receptor 100 ng/ml, read-out: BINDING IL13 IC50
Sequence of IL-13 (P35225 25-146, species assumed): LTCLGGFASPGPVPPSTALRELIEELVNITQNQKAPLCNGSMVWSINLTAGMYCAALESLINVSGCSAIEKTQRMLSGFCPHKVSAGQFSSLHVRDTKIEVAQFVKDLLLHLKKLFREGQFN
Procedure: as §1, with “The cytokine is used in the absence of small molecule as well as the range of SPD304 as positive controls and the absence of cytokine and synthetic molecule as negative control.” left out
as §2, §3

TNFα = TNFα (Homo sapiens, UniProt P01375); assay: Immunoassay binding test, TNFa; conditions: compounds 100 to 0.78 μM; TNFα 10 ng/ml, receptor 100 ng/ml; read-out: BINDING TNF IC50
Sequence of TNFα (P01375 77-233 limits assumed, species assumed): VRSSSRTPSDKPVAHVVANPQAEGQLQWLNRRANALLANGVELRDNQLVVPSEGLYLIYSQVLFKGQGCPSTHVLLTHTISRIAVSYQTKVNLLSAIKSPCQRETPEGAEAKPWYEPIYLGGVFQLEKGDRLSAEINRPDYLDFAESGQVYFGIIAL
In short: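 ELISA-type binding test: receptor-coated plates blocked with 2% BSA, then cytokine (six-point dilution series) preincubated 2 h at 37 °C and bound overnight at 4 °C. Detection used biotinylated anti-cytokine antibody and avidin-HRP, read as OD at 450 nm. For IL-6, IL-6Ra was present at 200 ng/ml final.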

TNFa/TNFRI interaction = TNFa/TNFRI interaction (Homo sapiens, UniProt P01375); assay: TNFa/TNFRI interaction displacement test; assay type: binding; conditions: for Displacement EC50 TNFa in presence of compound: Difference: Compound EC50 minus SPD304 EC50; for Displacement (%): compounds at 50 μM, human TNFRI 100 ng/ml;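 on Displacement EC50 TNFa in presence of compound: Difference: SPD304 reference at 20 µM final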
Sequence of TNFa/TNFRI interaction (P01375 77-233 limits assumed): as the sequence (P01375 77-233 limits assumed, species assumed) above
In short: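 Plates coated overnight at 4° C with human TNFRI (100 ng/ml) and blocked with 2% BSA, then test mixtures were incubated overnight at 4° C. Bound cytokine detected with biotinylated anti-cytokine antibody (2 h, 37° C) and avidin-HRP, read as OD at 450 nm.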

Sequence of IL-6 (P05231 30-212, species assumed): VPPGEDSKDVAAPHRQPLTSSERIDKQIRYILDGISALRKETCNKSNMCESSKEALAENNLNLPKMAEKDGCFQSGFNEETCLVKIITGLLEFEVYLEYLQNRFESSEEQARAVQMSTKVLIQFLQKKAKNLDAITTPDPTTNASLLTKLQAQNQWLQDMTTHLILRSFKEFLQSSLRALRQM

SMILES | BINDING IL6 % Neutra at 100 μM (IL-6) [%] | BINDING IL4 % Neutra at 100 μM (IL-4) [%] | IC50 (IL-4) [µM] | BINDING IL13 % Neutra at 100 μM (IL-13) [%] | IC50 (IL-13) [µM] | IC50 (TNFα) [µM] | Displacement EC50 TNFa in presence of compound: Difference (TNFa/TNFRI interaction) [ng/mL] | Displacement (%) (TNFa/TNFRI interaction)
FC(F)(F)c1cccc(-n2cc(CN(CCCNC3CCCCC3)Cc3ccncc3)c3ccccc32)c1 [Compound 12] | 1.6 | 96.3 | 12.3 | 58.2 | > 50 | 6.8 | 14.2 | 172
O=S(=O)(c1ccccc1)n1cc(CN(CCOCCNC2CCCCC2)Cc2cccnc2F)c2ccccc21 [Compound 64, N-(2-(2-(((2-fluoropyridin-3-yl)methyl) ((1-(phenylsulfonyl)-1H-indol-3-yl)methyl)amino)ethoxy)ethyl)cyclohexanaminee] | 0 | 90.7 | 5.1 | 83.9 | 28.2 | 8.9 | – | 197
CN(CCCCN(Cc1cccnc1)Cc1cn(-c2cccc(C(F)(F)F)c2)c2ccccc12)C1CCCCC1 [Compound 23] | 5.6 | 98.1 | 4.9 | 85.8 | > 50 | 9.3 | 5.5 | 140
O=S(=O)(NCCCCN(Cc1cccnc1F)Cc1cn(S(=O)(=O)c2ccccc2)c2ccccc12)N1CCCCC1 [Compound 80] | 0 | 29.1 | > 100 | 0 | – | > 50 | – | 0
O=S(=O)(c1ccccc1)n1cc(CN(Cc2ccncc2)CC2CCCN(C3CCCCC3)C2)c2ccccc21 (stereo not drawn) [Compound 5] | 2.1 | 96.9 | 7.8 | 84.9 | > 50 | 11.1 | 8.3 | 194
CN(CCCCCN(Cc1cccc(F)n1)Cc1cn(S(=O)(=O)c2ccccc2)c2ccccc12)C1CCCCC1 [Compound 54, N1-cyclohexyl-N5-((6-fluoropyridin-2-yl)methyl)-N1-methyl-N5-((1-(phenylsulfonyl)-1H-indol-3-yl)methyl)pentane-1,5-diamine] | 0 | 88.4 | 3 | 92.5 | 47.4 | 11.7 | – | 85
CN(CCCCN(Cc1cccnc1F)Cc1cn(C)c2ccccc12)C1CCCCC1 [Compound 95] | 0 | 75.3 | > 50 | 0 | – | > 50 | – | 16
CC(=O)NCCCCN(Cc1cccnc1F)Cc1cn(S(=O)(=O)c2ccccc2)c2ccccc12 [Compound 85] | 3 | 36.6 | > 100 | 0 | – | 44.3 | – | 45
CN(CCCCN(Cc1cccnc1F)Cc1cn(S(=O)(=O)c2ccccc2)c2ccccc12)C1CCCCCC1 [Compound 74, N′-cycloheptyl-N^4-((2-fluoropyridin-^3-yl)methyl)-N′-methyl-N^4-((1-(phenylsulfonyl)-1H-indol-^3-yl)methyl)butane-1,4-diamine] | 0 | 91.9 | 5.7 | 87.3 | > 50 | 6.6 | – | 160
